Measured values: patent US20130207041A1, “FLUORESCENT COMPOUND, MAKING METHOD, AND FLUORESCENT RESIN COMPOSITION” (Shin-Etsu Chemical Co., Ltd., priority 2012, published 2013)
≈ marks a conversion by molar mass, not a printed value.

How the values were obtained:
[1] = in ethanol
[2] = Solubility in transparent silicone resin SIM-360 matrix; conditions: room temperature, stirring; judged dissolved when solution became transparent
Method: With stirring at room temperature, transparent silicone resin SIM-360 matrix (Shin-Etsu Chemical Co., Ltd.) was added in incremental amounts.

SMILES | maximum absorption peak wavelength [1] [nm] | molar absorption coefficient [1] | solubility in silicone resin SIM-360 matrix [2]
C[Si](C)(C)O[Si](C)(CCCC1(CCC[Si](C)(O[Si](C)(C)C)O[Si](C)(C)C)c2cc(-c3ccc(-c4ccccc4)cc3)ccc2-c2ccc(-c3ccc(-c4ccccc4)cc3)cc21)O[Si](C)(C)C [Compound #2, 2,7-bis(biphenyl)-9,9′-di-[3-(1-trimethylsiloxy-1,3,3,3-tetramethyldisiloxan-1-yl)propyl]-fluorene] | 338 | 7.07×10^4 | 1.3 mmol/L (≈ 1290 µg/mL)
C[Si](C)(C)O[Si](C)(C)O[Si](C)(C)O[Si](C)(C)O[Si](C)(C)CCCC1(CCC[Si](C)(C)O[Si](C)(C)O[Si](C)(C)O[Si](C)(C)O[Si](C)(C)C)c2cc(-c3ccc(-c4ccccc4)cc3)ccc2-c2ccc(-c3ccc(-c4ccccc4)cc3)cc21 [Compound #4, 2,7-bis(biphenyl)-9,9′-di-[3-(undecamethylpentasiloxan-1-yl)propyl]fluorene] | 338 | 6.81×10^4 | 6.0 mmol/L (≈ 7750 µg/mL)
CCCCCCC1(CCCCCC)c2cc(-c3ccc(-c4ccccc4)cc3)ccc2-c2ccc(-c3ccc(-c4ccccc4)cc3)cc21 [Compound #5, 2,7-Bis(Biphenyl)-9,9′-Dihexylfluorene, reference compound] |  |  | could not be dissolved
